# Measurements as given in the NIST ThermoML archive (doi:10.1007/s10765-005-8096-3).
# ± gives the expanded uncertainty stated by the source.
# Experiment: refractive index (Na D-line) (dimensionless)
# Conditions: 298.15 K; 101.33 kPa; Liquid; Standard Abbe refractometry
row,SMILES,refractive index
1,"Cc1cc(C)cc(C)c1 [1,3,5-trimethylbenzene]",1.49682 ± 0.00075
2,"Cc1ccc(C)cc1 [1,4-dimethylbenzene]",1.49298 ± 0.00075
3,"CC(C)(C)c1ccccc1 [(1,1-dimethylethyl)benzene]",1.49003 ± 0.00075
4,CC(C)Cc1ccccc1 [(2-methylpropyl)benzene],1.48397 ± 0.00075
5,CCCCOC(C)=O [butyl ethanoate],1.39176 ± 0.00075
6,CCCCc1ccccc1 [butylbenzene],1.48735 ± 0.00075
7,CCc1ccccc1 [ethylbenzene],1.49316 ± 0.00075
8,CC(C)c1ccccc1 [isopropylbenzene],1.48869 ± 0.00075
9,Cc1ccccc1 [toluene],1.49399 ± 0.00075
